From the supplement of paper PMC7840683
Structures can show the parent of a compound that is named as a salt.

System: HepaRG
Test: LDH release cytotoxicity, % of total lysis control; higher = more cytotoxic
Conditions: 48 h
Method in brief: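 The CytoTox-ONE kit was used to read LDH in 50 µL spent medium as resorufin fluorescence on a Tecan Safire, with 0.1% Triton X added to total lysis wells. Beforehand, single-lot HepaRG cells on collagen I-coated 96-well plates had been exposed in duplicate for 48 h to eight-point half-log series (top 100 µM) in serum-free induction medium containing 0.5% DMSO. Percent cytotoxicity was normalized against on-plate vehicle and total lysis controls and averaged over duplicates.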

O=C(Nc1ccc2[nH]ccc2c1)c1cc2cc(F)ccc2n1Cc1cccc(F)c1
Conditions	LDH release cytotoxicity [%]
0.02625 µM	-0.0757
0.083 µM	-0.934
0.262469 µM	-1.53
0.83 µM	-0.536
2.62469 µM	-0.9
8.3 µM	-0.744
26.2469 µM	8.37
83 µM	93.9

N#Cc1nn(-c2c(Cl)cc(C(F)(F)F)cc2Cl)c(N)c1S(=O)C(F)(F)F (configuration not stated) [Fipronil]
Conditions	LDH release cytotoxicity [%]
0.0317809 µM	-1.15
0.1005 µM	-0.938
0.317809 µM	-1.37
1.005 µM	-2.05
3.17809 µM	-1.97
10.05 µM	-1.68
31.7809 µM	19.3
100.5 µM	59.8

CC(COc1ccc(Oc2ccccc2)cc1)Oc1ccccn1 (configuration not stated) [Pyriproxyfen]
Conditions	LDH release cytotoxicity [%]
0.031623 µM	-1.46
0.1 µM	-2.74
0.316228 µM	-2.85
1 µM	-3
3.16228 µM	-3.01
10 µM	-2.89
31.6228 µM	-1.8
100 µM	1.18

CNC(C)=O [N-Methylacetamide]
Conditions	LDH release cytotoxicity [%]
0.03162 µM	-1.43
0.1 µM	-0.843
0.3162278 µM	-1.8
1 µM	-2.12
3.16228 µM	-2.26
10 µM	-2.1
31.6228 µM	-2.47
100 µM	34

CCC(C)c1ccc(O)cc1 (configuration not stated) [4-(Butan-2-yl)phenol]
Conditions	LDH release cytotoxicity [%]
0.03162 µM	-1.68
0.1 µM	-2.9
0.3162278 µM	-2.9
1 µM	-3.15
3.16228 µM	-2.86
10 µM	-2.62
31.6228 µM	-1.77
100 µM	-0.982

CCCOc1sc(C(=O)N2CCC(c3cc(CN)ccc3F)CC2)c(C)c1Br [AVE8923]
Conditions	LDH release cytotoxicity [%]
0.002846 µM	0.846
0.009 µM	-1.04
0.02846 µM	-1.76
0.09 µM	-1.75
0.284605 µM	-1.48
0.9 µM	-1.21
2.84605 µM	-0.426
9 µM	-0.0454

Cc1ccc(S(=O)(=O)O)cc1C [Sodium xylenesulfonate]
Conditions	LDH release cytotoxicity [%]
0.03162 µM	-0.646
0.1 µM	-1.44
0.3162278 µM	-1.14
1 µM	-1.21
3.16228 µM	-1.1
10 µM	-1.23
31.6228 µM	-1.25
100 µM	1.23

Nc1cccc2c(N)cccc12 [1,5-Naphthalenediamine]
Conditions	LDH release cytotoxicity [%]
0.03162 µM	-0.228
0.1 µM	-1.23
0.3162278 µM	-1.58
1 µM	-2.39
3.16228 µM	-1.95
10 µM	-1.12
31.6228 µM	-1.51
100 µM	0.44

Cc1nn(-c2cc(NS(C)(=O)=O)c(Cl)cc2Cl)c(=O)n1C(F)F [Sulfentrazone]
Conditions	LDH release cytotoxicity [%]
0.03162 µM	-1.66
0.1 µM	-1.99
0.3162278 µM	-2.52
1 µM	-2.37
3.16228 µM	-0.982
10 µM	-1.17
31.6228 µM	-1.23
100 µM	0.713

CCCOC(=O)NCCCN(C)C [Propamocarb hydrochloride]
Conditions	LDH release cytotoxicity [%]
0.03162 µM	0.518
0.1 µM	-0.315
0.3162278 µM	-0.112
1 µM	-0.746
3.16228 µM	0
10 µM	0.683
31.6228 µM	0.664
100 µM	0.411

CC(C)(C)C(O)C(Cc1ccc(Cl)cc1)n1cncn1 (configuration not stated) [Paclobutrazol]
Conditions	LDH release cytotoxicity [%]
0.03162 µM	-0.9138
0.1 µM	-1.5
0.3162278 µM	-1.02
1 µM	-1.49
3.16228 µM	-1.96
10 µM	-1.1
31.6228 µM	-1.36
100 µM	-0.278

OCCCBr [3-Bromo-1-propanol]
Conditions	LDH release cytotoxicity [%]
0.03162 µM	0.25
0.1 µM	-0.845
0.3162278 µM	-1.144
1 µM	-0.314
3.16228 µM	-0.692
10 µM	-0.0559
31.6228 µM	-0.26
100 µM	9.22

C=CCCCCCCCCC(=O)O [10-Undecenoic acid]
Conditions	LDH release cytotoxicity [%]
0.03162 µM	0.758
0.1 µM	-0.653
0.3162278 µM	-0.789
1 µM	-0.96
3.16228 µM	-0.518
10 µM	-0.534
31.6228 µM	-1.07
100 µM	-0.0729

O=C(O)CN(CC(=O)O)CC(=O)O [Nitrilotriacetic acid]
Conditions	LDH release cytotoxicity [%]
0.03162 µM	-0.992
0.1 µM	-2.54
0.3162278 µM	-2.46
1 µM	-2.18
3.16228 µM	-1.64
10 µM	-2.38
31.6228 µM	-1.51
100 µM	-0.286

CCCN(CCC)c1c([N+](=O)[O-])cc(S(N)(=O)=O)cc1[N+](=O)[O-] [Oryzalin]
Conditions	LDH release cytotoxicity [%]
0.03162 µM	-2.37
0.1 µM	-2.04
0.3162278 µM	-0.725
1 µM	-1.89
3.16228 µM	-2.11
10 µM	-2.88
31.6228 µM	-1.72
100 µM	77.1

CCOC(=O)C(C)OC(=O)c1cc(Oc2ccc(C(F)(F)F)cc2Cl)ccc1[N+](=O)[O-] (configuration not stated) [Lactofen]
Conditions	LDH release cytotoxicity [%]
0.03162 µM	-1.17
0.1 µM	-0.64
0.3162278 µM	-0.974
1 µM	-1.12
3.16228 µM	-0.601
10 µM	-0.515
31.6228 µM	-0.447
100 µM	0.298

C=CCC1=C(C)C(OC(=O)C2C(C=C(C)C)C2(C)C)CC1=O (configuration not stated) [Allethrin]
Conditions	LDH release cytotoxicity [%]
0.03162 µM	0.254
0.1 µM	-0.919
0.3162278 µM	-1.19
1 µM	-0.231
3.16228 µM	-1.87
10 µM	-1.69
31.6228 µM	-0.447
100 µM	-0.904

Oc1ccc2ccc3cccc4ccc1c2c34 [1-Hydroxypyrene]
Conditions	LDH release cytotoxicity [%]
0.03162 µM	-0.176
0.1 µM	-0.855
0.3162278 µM	-1.52
1 µM	-1.23
3.16228 µM	-1.18
10 µM	-0.495
31.6228 µM	-0.838
100 µM	0.111

CCC(C)C(=O)OC1CC(C)C=C2C=CC(C)C(CCC3CC(O)CC(=O)O3)C21 (configuration not stated) [Lovastatin]
Conditions	LDH release cytotoxicity [%]
0.031623 µM	-0.879
0.1 µM	-2.24
0.316228 µM	-3.24
1 µM	-3.8
3.16228 µM	-3.98
10 µM	-3.52
31.6228 µM	-3.4
100 µM	1.06

CC(N)=O [Acetamide]
Conditions	LDH release cytotoxicity [%]
0.03162 µM	-1.42
0.1 µM	-0.0289
0.3162278 µM	-1.35
1 µM	-2.5
3.16228 µM	-2.19
10 µM	-0.925
31.6228 µM	-0.0914
100 µM	1.3

COc1ccc(C=CS(=O)(=O)NC(=O)c2ccc(C)cc2Cl)cc1
Conditions	LDH release cytotoxicity [%]
0.03162 µM	-1.21
0.1 µM	-1.99
0.3162278 µM	-1.66
1 µM	-1.597
3.16228 µM	-1.41
10 µM	-1.42
31.6228 µM	-0.383
100 µM	1.21

COC(=O)c1ccc(O)cc1 [Methylparaben]
Conditions	LDH release cytotoxicity [%]
0.03162 µM	-1.06
0.1 µM	-1.64
0.3162278 µM	-1.84
1 µM	-0.442
3.16228 µM	-0.946
10 µM	-0.563
31.6228 µM	-0.515
100 µM	0.108

CCNc1nc(Cl)nc(NC(C)(C)C)n1 [Terbutylazine]
Conditions	LDH release cytotoxicity [%]
0.03162 µM	0.3
0.1 µM	-1.75
0.3162278 µM	-0.304
1 µM	-1.25
3.16228 µM	-0.494
10 µM	-0.989
31.6228 µM	-0.271
100 µM	-0.0173

CCNS(=O)(=O)C(F)(F)C(F)(F)C(F)(F)C(F)(F)C(F)(F)C(F)(F)C(F)(F)C(F)(F)F [N-Ethylperfluorooctanesulfonamide]
Conditions	LDH release cytotoxicity [%]
0.03162 µM	-0.318
0.1 µM	-0.363
0.3162278 µM	-1.47
1 µM	-0.894
3.16228 µM	-1.27
10 µM	-0.5
31.6228 µM	0.958
100 µM	2.37

Nc1nc(N)nc(NC2CC2)n1 [Cyromazine]
Conditions	LDH release cytotoxicity [%]
0.03162 µM	-1.4
0.1 µM	-0.914
0.3162278 µM	-0.958
1 µM	-1.75
3.16228 µM	-1.74
10 µM	-1.14
31.6228 µM	-1.52
100 µM	0.201

CC(O)CC(C)(C)O (configuration not stated) [2-Methyl-2,4-pentanediol]
Conditions	LDH release cytotoxicity [%]
0.03162 µM	-1.84
0.1 µM	-2.18
0.3162278 µM	-2.81
1 µM	-2.8
3.16228 µM	-2.62
10 µM	-2.46
31.6228 µM	-2.69
100 µM	-0.649

CCO[Si](CCCNC(N)=O)(OCC)OCC [1-[3-(Triethoxysilyl)propyl]urea]
Conditions	LDH release cytotoxicity [%]
0.03162 µM	-1.05
0.1 µM	-2.25
0.3162278 µM	-1.8
1 µM	-2.22
3.16228 µM	-2.28
10 µM	-1.64
31.6228 µM	-1.55
100 µM	0.263

Nc1ccc(N=Nc2ccccc2)cc1 [4-Aminoazobenzene]
Conditions	LDH release cytotoxicity [%]
0.03162 µM	-0.0491
0.1 µM	-1.19
0.3162278 µM	-1.19
1 µM	-1.05
3.16228 µM	-1.2
10 µM	-0.585
31.6228 µM	0.184
100 µM	0.63

CS(=O)(=O)c1ccc(C(CC2CCC(=O)C2)C(=O)Nc2cnccn2)cc1Cl (configuration not stated) [Piragliatin]
Conditions	LDH release cytotoxicity [%]
0.03162 µM	-0.668
0.1 µM	-1.54
0.3162278 µM	-0.661
1 µM	-1.64
3.16228 µM	-1.28
10 µM	-0.831
31.6228 µM	-1.24
100 µM	-0.692
